In patent US20030082135A1, “Pathway of RANTES-mediated chemokine synthesis in astrocytes and methods of use therefor” (priority 2001, published 2003):

Columns and labels:
[1] = system: ICAM-1 and CX3CR1 on astrocytes; test: Flow cytometric analysis of astrocyte receptor proteins; type: cell-based, mouse
Method: Flow cytometric analyses. PBS with 0.1% sodium azide was used for all washes and antibody (Ab) dilutions. Cells were pre-incubated 15 min with 0.5 μg Fc Block (BD-PharMingen) then 40 min at 4° C. with 1 μg of the appropriate Ab or matched isotype control immunoglobulin. Fluorescence-labelled cells were analyzed on a Coulter Profile II flow cytometer (Coulter, Hialeah, Fla.).
Another marker of activated astrocytes in MS and EAE lesions is the increased expression of the adhesion receptor, ICAM-1 (Lee, et al., 1999. J Immunol 165:4658-4666). Control astrocyte cultures were stained with anti-ICAM-1, and RANTES treatment further increased the levels of ICAM-1 protein expression about three-fold (mean intensity 50.2 vs. control of 16.3).
The cell surface receptor CX3CR1 was also selected for analysis since astrocyte expression of this receptor may facilitate interactions with endothelial cells and neurons that carry the membrane-tethered ligand for this receptor (Bacon, et al, 2000. J Neuroimmunol 104:92-97). Anti-CX3CR1 stained about 50% of the control astrocyte population. […] The modulation of receptor proteins peaked at 24 h; similar patterns were noted after a 48 h incubation with RANTES but the intensity levels were intermediate between the 0 and 24 h values.

GFAP in astrocytes = test: Immunofluorescence of GFAP in astrocytes; type: cell-based, mouse; conditions: 100 ng/ml RANTES for 1-5 days
Method: Astrocytes associated with Alzheimer's Disease, MS and EAE lesions frequently display increased levels of the intracellular marker GFAP, an indicator of astrogliosis (Xu et al., 1999. Glia 25:390-403). To determine if chemokines could modulate GFAP expression astrocytes were treated with 100 ng/ml RANTES for 1-5 days and then examined for the intracellular marker GFAP by conventional immunofluorescence. Evidence for modulation of GFAP was not observed.

[2] = system: cultured mouse astrocytes; test: RT-PCR for KC message in astrocytes; type: cell-based
[3] = system: MEK, ERK1/2, p90RSK, p38, SAPK/JNK phosphorylation in astrocytes; test: Western blotting of phosphorylated MAP kinase pathway proteins in astrocyte lysates; type: cell-based, mouse
Method: SDS-PAGE and Western blotting. Astrocytes were treated for the indicated time with media or 100 ng/ml RANTES, eotaxin, or other materials as indicated. Cells (3×10^5 in Examples 1-3, or 2×10^4 in later Examples) were resuspended in 100 μl buffer (50 mM HEPES, pH 7.5, 150 mM NaCl, 2 mM EDTA, 2 mM EGTA, 1% Triton X-100, 50 mM Sodium fluoride, 5 mM Sodium pyrophosphate, 50 mM Sodium β-glycerophosphate, 1 mM Sodium Ortho-vanadate, 1 mM DTT, 1 mM PMSF, 10 μg/ml Leupeptin, and 10 μg/ml Aprotinin). Protein concentration of the whole cell extract was determined by BCA protein assay kit (Pierce, Rockford, Ill.). Samples (10 μg) were loaded and separated on a 10% SDS-polyacrylamide gel. After transfer to Hybond ECL nitrocellulose membrane (Amersham Pharmacia Biotech Inc, Piscataway, N.J.) or Zeta-probe blotting membranes (Bio-Rad, Richmond Calif.) blots were blocked overnight with 5% BSA at 4° C., and probed with the antibody indicated. Antibody against unphosphorylated or phosphorylated erk (Cell Signaling, Beverly, Mass.) was used at 1 μg/ml. Appropriate anti-immunoglobulin reagents were used to develop the blots by enhanced chemiluminescence (Amersham Pharmacia Biotech Inc, Piscataway, N.J.).
Little is known about the signaling mechanisms involved in astrocyte respones to chemokines. To examine components of the RANTES signal transduction pathway, phosphorylation of the MAP kinase kinase (MEK) and mitogen activated protein (MAP) kinases was examined. To minimize basal kinase activity, astrocytes were starved of serum for at least 3 h before treatment with chemokine. Whole cell lysates were separated by SDS-PAGE and examined by Western blot. Antibodies that specifically react with phosphorylated MEK or phosphorylated extracellular signal-related kinase (ERK) were used to detect the active kinases.

astrocytes = test: ELISA of KC, TNF-α and MCP-1 protein in astrocyte culture supernatants; type: cell-based, mouse
Method: ELISA. For production of supernatants, 2×10^4 astrocytes were cultured in 96 well plates with medium or 100 ng/ml RANTES. Supernatants were collected after the indicated times. ELISA assays for KC and MCP-1 were performed as in Luo, Y., et al. 1999. J Immunol 163:3985, and for TNF-α as in Abromson-Leeman, et al. 2001. Eur J Immunol 31:527. Protein levels were determined using recombinant KC, MCP-1, or TNF-α (R & D Systems, Minneapolis, Minn.) as standards.

[4] = system: CXCR4, CX3CR1, CCR1, CCR5 transcripts in astrocytes; test: RPA for chemokine receptor transcripts in astrocytes; type: cell-based, mouse; conditions: average, pooled results of 3-4 experiments
Method: RNA isolation and RNase protection assay (RPA). RNA was prepared as in Luo, Y., et al. 1999. J Immunol 163:3985. RNase protection assays (RPA) for chemokine message were conducted with multi-probe templates according to the manufacture's protocol (RiboQuant assay kit, BD-PharMingen, San Diego, Calif.). Gels were scanned and radioactive bands quantitated using a phosphoimager (Molecular Dynamics, Sunnyvale, Calif.). Levels of uniformly expressed housekeeping genes large ribosomal subunit protein 32-3A (L32) or glyceraldehyde-3-phosphate dehydrogenase (GAPDH), were used for normalization. The value of each chemokine receptor band divided by the value of the indicated housekeeping gene band in the same sample yielded the relative intensity. Normalized receptor expression represents the ratio of the relative intensity following treatment with chemokine versus the relative intensity of medium alone.
Treatment with the RANTES-related chemokines RANTES or eotaxin, or with TNF-α also found to down-regulate expression of CX3CR1 transcripts. In addition, CXCR4 mRNA levels were decreased, while the levels of CCR1 transcripts were elevated. In contrast, little or no regulation of CCR5 was noted. The pooled results of 3-4 experiments indicate eotaxin caused an average 60% decrease in CXCR4 (P less than 0.01) and a 70% decrease in CX3CR1 mRNA (P less than 0.02) (FIG. 8.B). The effects of RANTES stimulation were similar with an average 70 and 90% reduction in CXCR4 and CX3CR1 transcripts, respectively (P less than 0.01).

Substance: RANTES
- time of peak modulation of receptor proteins ([1]; RANTES): 24 h
- increase of ICAM-1 protein expression ([1]; RANTES treatment vs control astrocytes): about three
- ICAM-1 mean intensity ([1]; RANTES treatment, control 16.3): 50.2
- CX3CR1 mean intensity ([1]; RANTES treatment, control of 6.0 as printed): 14.3
- cells stained with anti-CX3CR1 ([1]; after RANTES, control about 50%): less than 30%
- modulation of GFAP (GFAP in astrocytes): not observed
- synthesis of KC message [2]: induce synthesis of KC message
- duration of phosphorylation of MEK, ERK1 and ERK2 ([3]; 100 ng/ml RANTES): over 2 h
- duration of phosphorylation of RSK ([3]; 100 ng/ml RANTES): over 2 h
- phosphorylation state of Raf-1 Ser 259 ([3]; 100 ng/ml RANTES): dephosphorylation
- time of appearance of phosphorylation of MEK, ERK1 and ERK2 ([3]; 100 ng/ml RANTES): ≤ 5 min
- time of peak phosphorylation of MEK, ERK1 and ERK2 ([3]; 100 ng/ml RANTES): 20 to 60 min
- time of peak phosphorylation of RSK ([3]; 100 ng/ml RANTES): 60 min
- time of appearance of phosphorylation of RSK ([3]; 100 ng/ml RANTES, Ser381, Thr360/Ser364, Thr574): ≤ 5 min
- phosphorylation of p38 or SAPK/JNK ([3]; 100 ng/ml, 20 min, 5 to 120 min): failed to phosphorylate
- time at which KC protein reached a plateau (astrocytes; 100 ng/ml RANTES): 1 days
- time at which KC protein synthesis was detectable (astrocytes; 100 ng/ml RANTES): ≤ 8 h
- time at which KC protein was detected (astrocytes; 100 ng/ml RANTES): 12 h
- KC protein concentration in supernatant (astrocytes; 100 ng/ml RANTES, after 16 h): 20 to 30 ng/mL
- TNF-α protein level in supernatant (astrocytes; 100 ng/ml RANTES, after 16 h): less than 120 pg/ml
- TNF-α protein in culture supernatants (astrocytes; 6 h after RANTES stimulation): not detectable
- TNF-α protein in culture supernatants (astrocytes; 12 h after RANTES stimulation): greater than 100 pg/ml
- time of peak TNF-α protein levels (astrocytes; RANTES stimulation): 24 h
- decrease in CX3CR1 mRNA [4]: 90%
- decrease in CXCR4 mRNA [4]: 70%
